Laboratory results as given in patent US8124598B2 (priority 2006, dated 2012).

Experiments:
trauma victims [1] = assay: Trauma victims with or without PTSD or depression, stress-related physiologic measures (Example 6); format: in vivo, human; settings: 25-75 mg/day by mouth for 1 to 6 months
[2] = system: midlife major and minor depression or dysthymia; settings: case reports; cited from earlier work
healthy male volunteers = settings: cited from earlier work
[3] = system: male and female patients with PTSD, panic disorder, anxiety, depression; assay: Sixteen case reports: oral 7-keto DHEA in PTSD, panic disorder, anxiety, depression and other conditions (Example 2); format: in vivo, human
Experimental: In all the patient reports that follow, 7-keto DHEA was administered orally.

trauma victims [4] = assay: Trauma victims after a terrorist attack, 7-keto DHEA vs placebo (Example 4); format: in vivo, human; settings: 50 or 75 mg/day by mouth for 2 to 6 weeks immediately following the incident
[5] = system: patients with treatment-resistant PTSD, panic disorder, anxiety, depression and other conditions; assay: Eight case reports: 7-keto DHEA in treatment-resistant patients (Example 3); format: in vivo, human
[6] = system: trauma victims with PTSD or depression; assay: Trauma victims with PTSD or depression, 7-keto DHEA vs placebo (Example 5); format: in vivo, human; settings: 75 mg/day by mouth for 1 to 6 months
[7] = system: women with severe chronic PTSD; assay: Five case reports: 7-keto DHEA in women with treatment-resistant PTSD (Example 1); format: in vivo, human
Source text: The following case reports are of 5 women with severe chronic PTSD resulting from severe early abuse who continued to be highly symptomatic despite receiving extensive psychotherapy and years of psychopharmacologic treatment. […] The improvements in these symptoms not only were subjective and objective, but also manifested in significant and rapid benefits in vocational and interpersonal functioning.
Ms. […] A. was so fearful and avoidant they would miss many sessions. They were so fragile and frightened they would frequently dissociate during sessions and forget what had been discussed. […] After the first week of 7-keto DHEA therapy, Ms. […] They reported feeling “more organized, more present” and being able to enjoy socializing “with a significant lessening of constant fear and self-criticism.”
The outcome of this case series offers evidence that 7-keto DHEA is beneficial in treating patients with histories of severe early trauma and persistent refractory PTSD.

## CC(=O)OC1CC[C@@]2(C)C(=CC(=O)[C@@H]3[C@@H]2CC[C@]2(C)C(=O)CC[C@@H]32)C1 (some centres unmarked) [7-keto DHEA, 3-acetyl-7-oxo-dehydroepiandrosterone]
Trauma victims [1]; patients with PTSD or depression
  stress-related physiologic measures (pain, headaches, hypertension, alcohol and substance abuse, work days lost to illness, cardiac events) compared to placebo: reduction in one or more stress-related physiologic measures
Trauma victims [1]; patients without PTSD or depression
  stress-related physiologic measures (pain, headaches, hypertension, alcohol and substance abuse, work days lost to illness, cardiac events) compared to placebo: reduction in one or more stress-related physiologic measures
[2]
  induced mania: no case reports of induced mania
Healthy male volunteers; healthy male volunteers
  differences in clinical laboratory values, minor adverse experiences, vital signs, blood chemistry, urinalysis between treatment and placebo groups: no differences
Healthy male volunteers; study by Davidson et al.
  side effects or changes in clinical laboratory values: no side effects or changes in clinical laboratory values
[3]; Patient 1, PTSD and Generalized Anxiety Disorder, 25 mg/day oral
  clinical response: less anxiety within 2 days
[3]; Patient 2, PTSD, chronic anxiety, Major depression, 50 mg/day oral
  clinical response: less anxiety and depression
[3]; Patient 3, Panic Disorder and Generalized Anxiety Disorder, 25 mg/day oral
  clinical response: less anxiety and panic
[3]; Patient 4, PTSD, Generalized Anxiety Disorder, Bipolar Depression, 25 mg/day oral
  clinical response: less anxious and depressed
[3]; Patient 5, Bipolar Depression and PTSD, 25 mg/day oral
  clinical response: less anxious and depressed
[3]; Patient 6, Tourette's Syndrome, chronic dysthymia, anxiety, 50 mg/day oral
  clinical response: calmer and in a better mood
[3]; Patient 7, Ankylosing Spondylitis, chronic pain, depression, 25 mg/day oral
  clinical response: calmer and less depressed
[3]; Patient 8, Dissociative Disorder, PTSD, Major Depression, Dependent Personality Disorder, 25 mg/day oral
  clinical response: less anxiety and dissociation
[3]; Patient 9, PTSD, Generalized Anxiety Disorder, Major Depression, 25 to 50 mg/day oral
  clinical response: less anxious and depressed
[3]; Patient 10, Bipolar Depression and PTSD, 25 mg/day oral
  clinical response: less anxious and depressed
[3]; Patient 11, Bipolar Depression and PTSD, 25 mg/day oral
  clinical response: less anxious
[3]; Patient 12, Bipolar Depression and PTSD, 25 mg/day oral
  clinical response: less anxious
[3]; Patient 13, PTSD and Major Depression, 50 mg/day oral
  clinical response: less depressed and anxious
[3]; Patient 14, Adult ADHD, Bereavement, PTSD, 25 mg/day oral
  clinical response: less irritable and anxious
[3]; Patient 15, Generalized Anxiety Disorder, 25 mg/day oral
  clinical response: lower anxiety and better mood
[3]; Patient 16, Generalized Anxiety Disorder and Fibromyalgia, 25 mg/day oral
  clinical response: lower anxiety and irritability
Trauma victims [4]
  PTSD, depression and stress-related emotional conditions compared to placebo: reduction in PTSD, depression and stress-related emotional conditions
[5]; Example 3 patient 7, 200 mg/day
  time the patient remained well: 9 months
[5]; Example 3 patients 3 and 6 on 7-keto DHEA (50; 100 mg/day)
  time the patient remained well: about 1 year
[5]; Patient 1, lifelong depression, PMDD, sexual PTSD, 75 mg/day
  clinical response: improved
[5]; Patient 2, lifelong anxiety, 4 years of depression, 50 mg/day
  clinical response: very effective
[5]; Patient 3, GAD, panic disorder, fibromyalgia/CFS, 50 mg/day
  clinical response: improvement in their symptoms
[5]; Patient 4, severe dissociative identity disorder, fibromyalgia, Bipolar Disorder, 200 mg/day
  clinical response: has been well for a year and is able to read and function
[5]; Patient 5, PTSD and bipolar 2 disorder, 50 mg/day in summer, 100 mg/day in winter
  clinical response: very effective
[5]; Patient 6, failed most antidepressants, atypical antipsychotics and ECT, 100 mg/day
  clinical response: tremendous positive effects in 1 week
[5]; Patient 6, dosage increased from 100 mg/day to 300 mg/day after stressful episode (breast cancer)
  clinical response after partial relapse: good results
[5]; Patient 7, lifelong depression, sexual PTSD, fibromyalgia/CFS, 200 mg/day
  clinical response: significant benefit
[6]
  PTSD, depression and stress-related emotional conditions compared to placebo: reduction in their PTSD depression and stress-related emotional conditions
[7]; Case 1 (PTSD, bipolar II, dissociative identity disorder), 25 mg/day, after the first week, adjunct
  clinical response: stopped feeling so fearful, stopped dissociating, was much more communicative, and related better
[7]; Case 1, 50 mg/day
  libido: went from having no libido to some libido
[7]; Case 1, after 3 weeks on 50 mg/day
  clinical response: stopped having nightmares, had much better concentration, functioned better at work and in social situations, had more stable mood
[7]; Case 1, dosage increased to 50 mg daily
  clinical response: even further improvement
[7]; Case 2 (PTSD, bipolar disorder NOS), 25 mg daily, within a few days, adjunct
  clinical response: feeling much better
[7]; Case 2, 25 mg daily, within 2 weeks
  vocational functioning: felt calm and centered enough to return to work
[7]; Case 3 (PTSD, major depressive disorder), 25 mg daily, after 4 days, adjunct
  clinical response: felt better and was no longer getting anxious and overwhelmed by stressful events
[7]; Case 3, 25 mg daily, seven days after start
  nightmares and flashbacks: fewer nightmares and flashbacks
[7]; Case 4 (PTSD with dissociative identity disorder), 50 mg for 6 weeks, adjunct
  clinical response: some improvement in daily functioning and more positive affect
[7]; Case 4, 100 mg for 6 weeks
  clinical response: became much more social
[7]; Case 4, 150 mg daily
  clinical response: continued to improve
[7]; Case 5 (anxiety, PTSD, dissociative identity disorder, panic attacks), 25 mg daily raised to 50 and 75 mg daily, single agent
  clinical response: feeling calmer and being better able to deal with the stress
[7]; all 5 treatment-resistant women, after starting 7-keto DHEA
  reduction in trauma and affective symptoms: rapid and substantial reduction in their trauma and affective symptoms
[7]; the 5 patients on 7-keto DHEA
  negative side effects: None of the 5 patients on 7-keto DHEA treatment reported any negative side effects
